For this assay, the target named is Cdk2^as (Homo sapiens, UniProt P24941, F80G). The assay can be described thus: histone H1 kinase assay with [γ-32P]ATP, purified Cdk2/cyclin A. In kind it is biochemical.

The term IC50 denotes the concentration that inhibits the measured activity by half.

Compound `Cc1cccc(Cc2nn(C(C)(C)C)c3ncnc(N)c23)c1` [3-MB-PP1] had an IC50 of approximately 3 nM.

These data come from article PMC3119039 (2011).
